Twelve molecules from publication doi:10.1101/318345v1, “Three enzymes and one substrate; regulation of flux through the glyoxylate shunt in the opportunistic pathogen, Pseudomonas aeruginosa” (biorxiv, 2018) can be followed below.

One assay deals with T1, ICL (Pseudomonas aeruginosa, UniProt Q9I0K4).
T1 construct: gene PA2634; full length, 531 residues, 59 kDa; His6-MBP fusion from E. coli DH5alpha, tag cleaved with Factor Xa; tetramer
T1 sequence (Q9I0K4 1-531): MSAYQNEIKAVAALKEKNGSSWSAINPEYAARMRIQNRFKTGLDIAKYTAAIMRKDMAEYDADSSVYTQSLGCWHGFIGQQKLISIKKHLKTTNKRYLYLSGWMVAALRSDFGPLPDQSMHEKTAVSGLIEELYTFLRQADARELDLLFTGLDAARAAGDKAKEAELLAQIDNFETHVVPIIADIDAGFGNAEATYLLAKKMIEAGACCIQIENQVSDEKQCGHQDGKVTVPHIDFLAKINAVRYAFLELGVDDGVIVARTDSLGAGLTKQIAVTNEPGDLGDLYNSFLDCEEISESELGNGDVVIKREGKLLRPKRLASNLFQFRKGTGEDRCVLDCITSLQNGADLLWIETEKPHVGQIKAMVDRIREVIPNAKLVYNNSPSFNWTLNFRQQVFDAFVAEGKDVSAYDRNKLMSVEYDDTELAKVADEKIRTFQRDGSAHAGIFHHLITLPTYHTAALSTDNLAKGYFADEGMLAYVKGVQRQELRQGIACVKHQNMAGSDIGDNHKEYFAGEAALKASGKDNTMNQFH
Description: ICL activity, spectrophotometric. Format: biochemical. The note with it: for Ki': uncompetitive, inhibitor at 1 mM, 37 °C, substrate isocitrate. An excerpt:
ICL activity, spectrophotometric on ICL

The next assay concerns the target T2, ICD (Pseudomonas aeruginosa, UniProt Q9I0L5).
T2 construct: full length, 45 kDa; His6-MBP fusion from E. coli DH5alpha, tag cleaved with Factor Xa; dimer
T2 sequence (Q9I0L5 1-418): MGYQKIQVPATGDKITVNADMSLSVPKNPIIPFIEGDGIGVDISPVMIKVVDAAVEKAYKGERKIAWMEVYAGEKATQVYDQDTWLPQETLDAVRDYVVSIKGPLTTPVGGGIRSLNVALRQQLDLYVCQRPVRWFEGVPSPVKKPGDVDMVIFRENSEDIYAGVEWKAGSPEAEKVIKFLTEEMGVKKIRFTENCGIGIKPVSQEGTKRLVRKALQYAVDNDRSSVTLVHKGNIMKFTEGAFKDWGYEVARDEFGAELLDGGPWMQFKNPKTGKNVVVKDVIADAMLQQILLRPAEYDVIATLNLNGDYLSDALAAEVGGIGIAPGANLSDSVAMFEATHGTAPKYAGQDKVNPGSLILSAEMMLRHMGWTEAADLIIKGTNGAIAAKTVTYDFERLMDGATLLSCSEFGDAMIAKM
Description: isocitrate dehydrogenase activity, NADPH at […] nm. Type of assay: biochemical.

The target in assay [1] is T3, IDH (Pseudomonas aeruginosa, UniProt Q9I0L4).
T3 construct: full length, 82 kDa; His6-MBP fusion from E. coli DH5alpha, tag cleaved with Factor Xa
T3 sequence (Q9I0L4 1-741): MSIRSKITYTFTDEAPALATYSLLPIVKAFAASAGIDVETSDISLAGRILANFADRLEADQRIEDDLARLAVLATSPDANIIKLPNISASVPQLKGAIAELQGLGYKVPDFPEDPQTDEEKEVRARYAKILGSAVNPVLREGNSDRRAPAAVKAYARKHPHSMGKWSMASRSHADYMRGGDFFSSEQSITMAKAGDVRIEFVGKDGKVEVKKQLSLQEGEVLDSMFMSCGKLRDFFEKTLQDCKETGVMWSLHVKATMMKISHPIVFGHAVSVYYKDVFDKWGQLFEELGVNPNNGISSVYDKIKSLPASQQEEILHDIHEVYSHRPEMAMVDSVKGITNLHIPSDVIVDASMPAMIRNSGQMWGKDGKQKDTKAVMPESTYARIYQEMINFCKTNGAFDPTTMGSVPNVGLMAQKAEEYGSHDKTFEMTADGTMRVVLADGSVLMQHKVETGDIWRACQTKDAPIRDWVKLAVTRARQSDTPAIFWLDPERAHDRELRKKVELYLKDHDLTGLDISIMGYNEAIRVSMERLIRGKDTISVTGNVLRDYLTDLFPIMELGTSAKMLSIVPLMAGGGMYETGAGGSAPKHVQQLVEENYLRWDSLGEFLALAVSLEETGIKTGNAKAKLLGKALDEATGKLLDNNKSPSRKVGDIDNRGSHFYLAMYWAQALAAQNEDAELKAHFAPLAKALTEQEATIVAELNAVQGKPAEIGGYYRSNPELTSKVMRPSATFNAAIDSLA
Description: X-ray crystal structure, […] Å. Type of assay: binding. The note with it: chain A, with NADP.

Assay [2] has as its target T3, IDH. Description: isocitrate dehydrogenase activity, NADPH at […] nm. Format: biochemical. The note with it: activator at 1 mM, V-type allosteric; 5 mM MgCl2, pH 7.5, 37 °C.
For a further assay, the target named is T4, AceKPA (Pseudomonas aeruginosa, UniProt Q9I3W8).
T4 construct: gene aceK; His6-tagged from pET-19m, tag cleaved with TEV protease
T4 sequence (Q9I3W8 1-577): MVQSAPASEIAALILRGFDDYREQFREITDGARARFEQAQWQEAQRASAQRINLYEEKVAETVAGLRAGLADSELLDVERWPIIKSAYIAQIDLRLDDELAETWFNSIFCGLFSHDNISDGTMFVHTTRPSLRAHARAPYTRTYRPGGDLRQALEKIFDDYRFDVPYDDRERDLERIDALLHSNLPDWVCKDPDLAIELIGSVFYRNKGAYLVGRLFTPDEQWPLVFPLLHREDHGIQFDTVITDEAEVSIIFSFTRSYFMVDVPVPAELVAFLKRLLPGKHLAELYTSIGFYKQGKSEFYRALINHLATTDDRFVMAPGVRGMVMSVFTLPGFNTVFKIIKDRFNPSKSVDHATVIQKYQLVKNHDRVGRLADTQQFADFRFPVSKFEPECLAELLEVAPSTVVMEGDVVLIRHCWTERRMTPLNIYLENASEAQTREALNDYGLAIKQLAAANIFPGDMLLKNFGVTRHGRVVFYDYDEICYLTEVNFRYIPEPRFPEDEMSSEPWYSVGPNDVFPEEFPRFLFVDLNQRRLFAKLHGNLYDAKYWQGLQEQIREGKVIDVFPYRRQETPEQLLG
T4 sequence (Q9I0L5 1-418 partner): T2 sequence (Q9I0L5 1-418)
Description: AceK phosphatase coupled to ICD reactivation. Format: biochemical. The note with it: activator of phosphatase at 5 mM; ICD from P. aeruginosa as protein substrate; 1 mM ATP, 2 mM MgCl2, pH 7.0, 37 °C.

The mark [3] stands for this setting: text b11 prints a different value (0.6 mM).

With `O=C(O)C[C@H](O)C(=O)O` [malic acid], the affinity on ICL corresponds to a Ki of 4400 µM.
For the molecule `O=C(O)CC[N+](=O)[O-]` [nitropropionic acid], the “Ki'” value at ICL (setting [3]) worked out at 1000 µM.
Regarding `O=C(O)CCC(=O)C(=O)O` [α-ketoglutarate], the affinity at ICD corresponds to a Ki of 666 µM. Moreover, at IDH [1], the “X-ray crystal structure, 2.7 Å” value is “(designated chain A) contained bound α-ketoglutarate and NADP”.
Turning to `O=C(O)CC(O)(CC(=O)O)C(=O)O` [citrate], the inhibition constant (Ki) (in general, the equilibrium dissociation constant of an inhibitor or competing ligand from its target) on ICL was found to be 15800 µM.
`C=C(CC(=O)O)C(=O)O` [itaconic acid]: the “Ki'” value at ICL (text b11 prints a different value (0.5 mM)) came out at 900 µM.
On to `O=C(O)CO` [glycolic acid], for which the Ki at ICL is 1800 µM.
At ICL, `CC(=O)C(=O)O` [pyruvate] displayed an inhibitory constant (Ki) of 1700 µM. The “isocitrate dehydrogenase activity, NADPH at 340 nm” value on IDH [2] is “pyruvate and oxaloacetate were far more potent regulators”.
For `O=C(O)CC(=O)C(=O)O` [oxaloacetate], on ICL, the Ki amounted to 1400 µM.
In the case of `O=C(O)/C=C/C(=O)O` [fumarate], the “AceK phosphatase coupled to ICD reactivation” value on AceKPA is given as “fumarate was the most potent activator of the phosphatase in AceKPA”.
For the molecule `O=C(O)CC(=O)O` [malonic acid], the “Ki'” value on ICL worked out at 2900 µM.
Consider `CC(C)(COP(=O)(O)OP(=O)(O)OC[C@H]1O[C@@H](n2cnc3c(N)ncnc32)[C@H](O)[C@@H]1OP(=O)(O)O)[C@@H](O)C(=O)NCCC(=O)NCCS` [coenzyme A], for which, on ICL, the Ki turned out to be 3900 µM.
As for `O=C(O)CCC(=O)O` [succinate], the “Ki'” value on ICL (setting [3]) is 900 µM.
